Several values for one entry are separate records, joined by “and”; a condition that tells them apart may be missing. Equal values may be shown once. Inconclusive results and toxic doses are left out.
Tested on: B6C3F1 mice, B16 melanoma ip, median survival T/C
Assay: NCI In Vivo Anticancer Drug Screen. Data for tumor model B16 Melanoma (intraperitoneal) in B6C3F1 mice
Conditions: endpoint: median survival time, higher = longer survival
Procedure, shortened: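 Readout: survival or tumor size in treated mice relative to vehicle controls (T/C). Model uses transplantable tumors grown in mice.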

[1] = dose: 25.0 mg/kg/injection, schedule: Q01DX009 (ip), vehicle: Klucel (hydroxypropylcellulose) (HPC)
[2] = dose: 50.0 mg/kg/injection, schedule: Q01DX009 (ip), vehicle: Klucel (hydroxypropylcellulose) (HPC)
[3] = dose: 100.0 mg/kg/injection, schedule: Q01DX009 (ip), vehicle: Klucel (hydroxypropylcellulose) (HPC)
[4] = dose: 12.5 mg/kg/injection, schedule: Q01DX009 (ip), vehicle: saline
[5] = dose: 25.0 mg/kg/injection, schedule: Q01DX009 (ip), vehicle: saline

Structure (SMILES): CC(=O)OC1C(C)OC(OC(=O)C2CCC3C(C2)OC2(CC(OC(=O)/C=C/c4ccccc4)C(C)CO2)C32CO2)C(OC2OC(C)C(O)C(OC(C)=O)C2O)C1O (stereo not given)
- T/C (dose: 0.75 mg/kg/injection, schedule: Q01DX009 (ip), vehicle: saline + alcohol): 100 % of control
- T/C (dose: 1.5 mg/kg/injection, schedule: Q01DX009 (ip), vehicle: saline + alcohol): 99 % of control
- T/C (dose: 3.0 mg/kg/injection, schedule: Q01DX009 (ip), vehicle: saline + alcohol): 99 % of control
- T/C (dose: 4.0 mg/kg/injection, schedule: Q01DX009 (ip), vehicle: saline + Tween-80 + alcohol): 122 % of control
- T/C (dose: 16.0 mg/kg/injection, schedule: Q01DX009 (ip), vehicle: saline + Tween-80 + alcohol): 161 % of control
- T/C (dose: 32.0 mg/kg/injection, schedule: Q01DX009 (ip), vehicle: saline + Tween-80 + alcohol): 174 % of control
- T/C (dose: 64.0 mg/kg/injection, schedule: Q01DX009 (ip), vehicle: saline + Tween-80 + alcohol): 201 % of control

Structure (SMILES): NC1(C(=O)O)CCCc2ccc(N(CCCl)CCCl)cc21 (stereo not given)
- T/C (dose: 2.5 mg/kg/injection, schedule: Q01DX009 (ip), vehicle: saline): 120 % of control
- T/C (dose: 10.0 mg/kg/injection, schedule: Q01DX009 (ip), vehicle: saline with Tween-80): 121 % of control
- T/C (dose: 10.0 mg/kg/injection, schedule: Q01DX009 (ip), vehicle: saline): 157 % of control
- T/C (dose: 20.0 mg/kg/injection, schedule: Q01DX009 (ip), vehicle: saline): 189 % of control

Structure (SMILES): CCOC(=O)c1ccc(NC(=O)Nc2nc(C)cs2)cc1
- T/C (dose: 12.5 mg/kg/injection, schedule: Q01DX009 (ip), vehicle: distilled water + Tween-80): 120 % of control
- T/C (dose: 25.0 mg/kg/injection, schedule: Q01DX009 (ip), vehicle: distilled water + Tween-80): 120 % of control

Structure (SMILES): COc1cc2cc3c(c(O)c2c(O)c1/C=C/C(C)C)C(=O)CC(C)(OC(C)=O)C3 (stereo not given)
- T/C (dose: 0.62 mg/kg/injection, schedule: Q01DX009 (ip), vehicle: Klucel (hydroxypropylcellulose) (HPC)): 98 % of control
- T/C (dose: 0.63 mg/kg/injection, schedule: Q01DX009 (ip), vehicle: Klucel (hydroxypropylcellulose) (HPC)): 104 % of control
- T/C (dose: 1.25 mg/kg/injection, schedule: Q01DX009 (ip), vehicle: Klucel (hydroxypropylcellulose) (HPC)): 109 % of control and 112 % of control
- T/C (dose: 2.5 mg/kg/injection, schedule: Q01DX009 (ip), vehicle: Klucel (hydroxypropylcellulose) (HPC)): 115 % of control and 122 % of control
- T/C (dose: 10.0 mg/kg/injection, schedule: Q01DX009 (ip), vehicle: Klucel (hydroxypropylcellulose) (HPC)): 100 % of control

Structure (SMILES): Cc1ccccc1N=C(c1ccccc1)C1C(=O)c2ccccc2C1=O
- T/C (dose: 50.0 mg/kg/injection, schedule: Q01DX009 (ip), vehicle: DMSO): 101 % of control
- T/C (dose: 100.0 mg/kg/injection, schedule: Q01DX009 (ip), vehicle: DMSO): 106 % of control
- T/C (dose: 200.0 mg/kg/injection, schedule: Q01DX009 (ip), vehicle: DMSO): 116 % of control
- T/C (dose: 400.0 mg/kg/injection, schedule: Q01DX009 (ip), vehicle: DMSO): 108 % of control
- T/C (dose: 800.0 mg/kg/injection, schedule: Q01DX009 (ip), vehicle: DMSO): 101 % of control

Structure (SMILES): OCC1OC(n2cnc3c2NC=NC[C@H]3O)CC1O (stereo not given in full)
- T/C (dose: 0.13 mg/kg/injection, schedule: Q01DX009 (ip), vehicle: saline): 84 % of control
- T/C (dose: 0.25 mg/kg/injection, schedule: Q01DX009 (ip), vehicle: saline): 78 % of control
- T/C (dose: 0.5 mg/kg/injection, schedule: Q01DX009 (ip), vehicle: saline): 96 % of control

Structure (SMILES): Nc1cc(=O)[nH][nH]1
- T/C (dose: 100.0 mg/kg/injection, schedule: Q01DX009 (ip), vehicle: saline with Tween-80): 91 % of control
- T/C (dose: 200.0 mg/kg/injection, schedule: Q01DX009 (ip), vehicle: saline with Tween-80): 96 % of control
- T/C (dose: 400.0 mg/kg/injection, schedule: Q01DX009 (ip), vehicle: saline with Tween-80): 98 % of control

Structure (SMILES): O=C1CN(CO)C(=O)N1CO
- T/C [1]: 93 % of control
- T/C [2]: 97 % of control
- T/C [3]: 110 % of control
- T/C (dose: 200.0 mg/kg/injection, schedule: Q01DX009 (ip), vehicle: Klucel (hydroxypropylcellulose) (HPC)): 103 % of control

Structure (SMILES): C=C(C)[C@@H]1CCc2c(O)c(O)c(=O)cc(C)c2C1
- T/C (dose: 3.12 mg/kg/injection, schedule: Q01DX009 (ip), vehicle: Klucel (hydroxypropylcellulose) (HPC)): 100 % of control
- T/C (dose: 3.12 mg/kg/injection, schedule: Q01DX009 (ip), vehicle: saline with Tween-80): 100 % of control
- T/C (dose: 6.25 mg/kg/injection, schedule: Q01DX009 (ip), vehicle: Klucel (hydroxypropylcellulose) (HPC)): 99 % of control
- T/C (dose: 6.25 mg/kg/injection, schedule: Q01DX009 (ip), vehicle: saline with Tween-80): 100 % of control
- T/C (dose: 12.5 mg/kg/injection, schedule: Q01DX009 (ip), vehicle: Klucel (hydroxypropylcellulose) (HPC)): 104 % of control
- T/C (dose: 12.5 mg/kg/injection, schedule: Q01DX009 (ip), vehicle: saline with Tween-80): 95 % of control
- T/C [4]: 100 % of control
- T/C [1]: 112 % of control
- T/C (dose: 25.0 mg/kg/injection, schedule: Q01DX009 (ip), vehicle: saline with Tween-80): 102 % of control
- T/C [5]: 115 % of control
- T/C [2]: 99 % of control
- T/C (dose: 50.0 mg/kg/injection, schedule: Q01DX009 (ip), vehicle: saline with Tween-80): 110 % of control
- T/C [3]: 102 % of control

Structure (SMILES): Cc1cc2c(cc1C)C(=O)c1c(O)c3c(c(O)c1C2=O)C[C@@](O)(C(=O)CO)C[C@@H]3OC1CC(N)C(O)C(C)O1 (stereo not given in full)
- T/C (dose: 2.5 mg/kg/injection, schedule: Q01DX001 (ip), vehicle: water): 193 % of control
- T/C (dose: 5.0 mg/kg/injection, schedule: Q01DX001 (ip), vehicle: water): 162 % of control and 193 % of control
- T/C (dose: 10.0 mg/kg/injection, schedule: Q01DX001 (ip), vehicle: water): 213 % of control and 236 % of control
- T/C (dose: 20.0 mg/kg/injection, schedule: Q01DX001 (ip), vehicle: water): 155 % of control and 240 % of control

Structure (SMILES): CC(=O)c1ccc([NH-])c([NH-])c1.[Cl][Pt+2][Cl]
- T/C (dose: 2.5 mg/kg/injection, schedule: Q01DX009 (ip), vehicle: distilled water + Tween-80): 116 % of control
- T/C (dose: 5.0 mg/kg/injection, schedule: Q01DX009 (ip), vehicle: distilled water + Tween-80): 116 % of control
- T/C (dose: 10.0 mg/kg/injection, schedule: Q01DX009 (ip), vehicle: distilled water + Tween-80): 114 % of control and 124 % of control
- T/C (dose: 20.0 mg/kg/injection, schedule: Q01DX009 (ip), vehicle: distilled water + Tween-80): 114 % of control
- T/C (dose: 40.0 mg/kg/injection, schedule: Q01DX009 (ip), vehicle: distilled water + Tween-80): 119 % of control

Structure (SMILES): C=Cc1cc(OC)c2c(c1)c(=O)oc1c2cc(OC)c2c(O)ccc(C3OC(C(C)O)C(O)C3O)c21 (stereo not given)
- T/C [1]: 165 % of control

Structure (SMILES): CN1CCN(c2ccc3nc(-c4ccc5nc(-c6ccc(O)cc6)[nH]c5c4)[nH]c3c2)CC1
- T/C (dose: 6.25 mg/kg/injection, schedule: Q01DX009 (ip), vehicle: saline): 95 % of control
- T/C [4]: 99 % of control
- T/C [5]: 89 % of control

Structure (SMILES): [Cl][Pt+2][Cl].[NH-]c1cc(Cl)c(Cl)cc1[NH-]
- T/C (dose: 20.0 mg/kg/injection, schedule: Q01DX009 (ip), vehicle: saline with Tween-80): 97 % of control and 107 % of control
- T/C (dose: 40.0 mg/kg/injection, schedule: Q01DX009 (ip), vehicle: saline with Tween-80): 110 % of control and 101 % of control
- T/C (dose: 80.0 mg/kg/injection, schedule: Q01DX009 (ip), vehicle: saline with Tween-80): 110 % of control and 122 % of control
- T/C (dose: 160.0 mg/kg/injection, schedule: Q01DX009 (ip), vehicle: saline with Tween-80): 111 % of control and 105 % of control
- T/C (dose: 320.0 mg/kg/injection, schedule: Q01DX009 (ip), vehicle: saline with Tween-80): 110 % of control and 106 % of control

Structure (SMILES): NCc1ccc(O)c(O)c1
- T/C (dose: 28.13 mg/kg/injection, schedule: Q03HX024 (ip), vehicle: saline): 98 % of control
- T/C (dose: 56.25 mg/kg/injection, schedule: Q03HX024 (ip), vehicle: saline): 107 % of control
- T/C (dose: 75.0 mg/kg/injection, schedule: Q01DX009 (ip), vehicle: saline): 110 % of control
- T/C (dose: 225.0 mg/kg/injection, schedule: Q03HX024 (ip), vehicle: saline): 124 % of control
- T/C (dose: 300.0 mg/kg/injection, schedule: Q01DX009 (ip), vehicle: saline): 114 % of control and 117 % of control
- T/C (dose: 400.0 mg/kg/injection, schedule: Q01DX009 (ip), vehicle: saline): 117 % of control and 118 % of control
- T/C (dose: 500.0 mg/kg/injection, schedule: Q01DX009 (ip), vehicle: saline): 117 % of control and 91 % of control

Structure (SMILES): C[C@@](O)(/C=C/[C@H]1CC=CC(=O)O1)[C@@H](C[C@@H](O)\C=C/C=C\C=C\CO)OP(=O)(O)O
- T/C (dose: 3.12 mg/kg/injection, schedule: Q01DX009 (ip), vehicle: other): 98 % of control and 105 % of control
- T/C (dose: 6.25 mg/kg/injection, schedule: Q01DX009 (ip), vehicle: other): 110 % of control and 102 % of control
- T/C (dose: 12.5 mg/kg/injection, schedule: Q01DX009 (ip), vehicle: other): 101 % of control and 103 % of control
- T/C (dose: 25.0 mg/kg/injection, schedule: Q01DX009 (ip), vehicle: other): 99 % of control
